Experimental data reported in patent US20230295162A1 (EÖTVÖS LORÁND TUDOMÁNYEGYETEM, priority 2020, published 2023).
Read-outs that look alike come from different tables or passages of the source.

Columns and labels:
EBC-1 cell line = experiment: Additional in vitro IC50 tests (Table 3); assay type: cell-based; conditions: Homo sapiens
Method: (§1) Cell lines were maintained according to the instructions provided by ATCC (https://www.lgcstandards-atcc.org/) in a 5% CO2 humidified incubator maintained at 37° C. temperature. Effects of compounds on cell viability were measured via CellTiter-Glo® luminescent cell viability assay (Promega, Madison, WI, USA) Cells were plated at 1000 cells/well onto a flat-bottomed, white 96 well plate (BRANDplates, cat. no.: 781965). […] After the treatment, medium was removed and CellTiter-Glo® reagent was added. The luminescence signal was recorded using a microplate reader (BioTek Synergy 2 Multi-Mode Reader, BioTek, Winooski, VT, USA).
(§2) Cell viability data (% of untreated control cells) was evaluated with Microsoft Excel. Dose-response curves (using a non-linear regression model, log (inhibitor) vs response, variable slope) were generated and IC50 values were determined using Graph Pad Prism 5.02 software (GraphPad Software, San Diego, CA, USA).

SCC-25 cell line = experiment: Additional in vitro IC50 tests (Table 3); assay type: cell-based; conditions: Homo sapiens
Method: as §1, §2

Fadu cell line = experiment: Additional in vitro IC50 tests (Table 3); assay type: cell-based; conditions: Homo sapiens
Method: as §1, §2

H2228 cell line = experiment: Additional in vitro IC50 tests (Table 3); assay type: cell-based; conditions: Homo sapiens, NCI-H2228
Method: as §1, §2

Detroit 562 cell line = experiment: Additional in vitro IC50 tests (Table 3); assay type: cell-based; conditions: Homo sapiens
Method: as §1, §2

[1] = tested on: LNCaP (prostate, carcinoma) cells; experiment: Cell viability assay, CellTiter-Glo (Example 21); assay type: cell-based, human; conditions: 72 h
Method: (§3) Effect of the selected compounds on cancer cell viability was measured via CellTiter-Glo® luminescent cell viability assay (Promega, Madison, WI, USA) according to the manufacturer's instructions. Cells were plated onto a flat-bottomed, white 96 well plate (BRANDplates®, cat. no.: 781965). Density of the seeded cells was optimized based on their size and growth rate, as the follows: Panc-1:750 cells/well; DU 145, PC-3, Capan-1, MIA PaCa-2, SCC-25, FaDu and EBC-1: 1000 cells/well; LNCaP, Detroit 562, MDA-MB-231 and MDA-MB-453 1500 cells/well. […] After the treatment, the luminescence signal was recorded using a microplate reader (BioTek Synergy 2 Multi-Mode Reader, BioTek, Winooski, VT, USA). Dose-response curves were generated by GraphPad Prism 8.4.2. software using a non-linear regression model (variable slope, four parameters), (see FIGS. 12-51).

[2] = tested on: Panc-1 (pancreas, carcinoma) cells; experiment: Cell viability assay, CellTiter-Glo (Example 21); assay type: cell-based, human; conditions: 72 h treatment
Method: as §3

[3] = tested on: MDA-MB-453 (breast, carcinoma) cells; experiment: Cell viability assay, CellTiter-Glo (Example 21); assay type: cell-based, human; conditions: 72 h treatment
Method: as §3

[4] = tested on: SCC-25 (tongue, squamous cell carcinoma) cells; experiment: Cell viability assay, CellTiter-Glo (Example 21); assay type: cell-based, human; conditions: 72 h treatment
Method: as §3

[5] = tested on: Detroit 562 (pharynx, carcinoma) cells; experiment: Cell viability assay, CellTiter-Glo (Example 21); assay type: cell-based, human; conditions: 72 h treatment
Method: as §3

[6] = tested on: Capan-1 (pancreas, adenocarcinoma) cells; experiment: Cell viability assay, CellTiter-Glo (Example 21); assay type: cell-based, human; conditions: 72 h treatment
Method: as §3

[7] = tested on: DU 145 (prostate, carcinoma) cells; experiment: Cell viability assay, CellTiter-Glo (Example 21); assay type: cell-based, human; conditions: 72 h
Method: as §3

[8] = tested on: MIA PaCa-2 (pancreas, carcinoma) cells; experiment: Cell viability assay, CellTiter-Glo (Example 21); assay type: cell-based, human; conditions: 72 h treatment
Method: as §3

[9] = tested on: MDA-MB-231 (breast, adenocarcinoma) cells; experiment: Cell viability assay, CellTiter-Glo (Example 21); assay type: cell-based, human; conditions: 72 h treatment
Method: as §3

[10] = tested on: PC-3 (prostate, adenocarcinoma) cells; experiment: Cell viability assay, CellTiter-Glo (Example 21); assay type: cell-based, human; conditions: 72 h treatment
Method: as §3

[11] = tested on: EBC-1 (lung, squamous cell carcinoma) cells; experiment: Cell viability assay, CellTiter-Glo (Example 21); assay type: cell-based, human; conditions: 72 h treatment
Method: as §3

[12] = tested on: PANC-1 (human pancreatic carcinoma) cells; experiment: Impedance-based viability assay (xCELLigence SP), long treatment; assay type: cell-based; conditions: 72 h, read-out: cytotoxicity expressed in IC50, PANC-1
Source text: (Gibco®/Invitrogen Corporation, New York, NY, USA).
Data obtained from each experiment represent mathematical averages.

Panc-1 human cell line = experiment: Cytotoxicity on Panc-1, xCELLigence SP, IC50 after 24 h, 48 h, 72 h and 96 h (Example 22)
[13] = tested on: Panc1 pancreatic cancer cell line; experiment: CellTiter-Glo IC50 (Example 19); assay type: cell-based; conditions: Homo sapiens, PANC-1, 72 h
Method: Some representative imipridones and ONC212 as reference were further tested on the following human malignant cell lines: PC3 and LNCap (prostate carcinoma); BxPC3, MiaPaCa2 and Panc1 (pancreatic cancer); A549, HCC827, H1993 and H520 (lung carcinoma); MDA-MB-453 and MDA-MB-231 (breast cancer) (see Table 2 and FIGS. 1-11).
as §1, §2

Q: Which results are given for `O=C1C2=C(CCN(Cc3cc(F)cc(F)c3)C2)N2CCN=C2N1Cc1ccc(C(F)(F)F)cc1` [I/30, 7-(3,5-Difluorobenzyl)-4-(4-(trifluoromethyl)benzyl)-2,4,6,7,8,9-hexahydroimidazo[1,2-a]pyrido[3,4-e]pyrimidin-5(1H)-one]?
A: IC50 (EBC-1 cell line): 5 nM; IC50 (SCC-25 cell line): 6 nM; IC50 (Fadu cell line): 5 nM; IC50 (H2228 cell line): 5 nM; IC50 (Detroit 562 cell line): 2 nM; LNCaP cell viability ([1]; 3.7 nM): 29.6 ± 2.5 % of control; LNCaP cell viability ([1]; 11.1 nM): 15.0 ± 0.4 % of control; LNCaP cell viability ([1]; 100 nM): 11.4 ± 0.6 % of control; LNCaP cell viability ([1]; 300 nM): 11.3 ± 1.1 % of control; Panc-1 (pancreas, carcinoma) cell viability (% of control) ([2]; 3.7 nM): 100.8 ± 3.4 % of control; Panc-1 (pancreas, carcinoma) cell viability (% of control) ([2]; 11.1 nM): 54.4 ± 3.5 % of control; Panc-1 (pancreas, carcinoma) cell viability (% of control) ([2]; 100 nM): 46.4 ± 3.1 % of control; Panc-1 (pancreas, carcinoma) cell viability (% of control) ([2]; 300 nM): 49.1 ± 0.2 % of control; MDA-MB-453 (breast, carcinoma) cell viability (% of control) ([3]; 3.7 nM): 58.0 ± 24.4 % of control; MDA-MB-453 (breast, carcinoma) cell viability (% of control) ([3]; 11.1 nM): 34.8 ± 3.3 % of control; MDA-MB-453 (breast, carcinoma) cell viability (% of control) ([3]; 100 nM): 31.1 ± 1.8 % of control; MDA-MB-453 (breast, carcinoma) cell viability (% of control) ([3]; 300 nM): 28.9 ± 1.0 % of control; SCC-25 (tongue, squamous cell carcinoma) cell viability (% of control) ([4]; 3.7 nM): 78.7 ± 15.0 % of control; SCC-25 (tongue, squamous cell carcinoma) cell viability (% of control) ([4]; 11.1 nM): 35.0 ± 14.5 % of control; SCC-25 (tongue, squamous cell carcinoma) cell viability (% of control) ([4]; 100 nM): 32.9 ± 2.1 % of control; SCC-25 (tongue, squamous cell carcinoma) cell viability (% of control) ([4]; 300 nM): 36.3 ± 2.6 % of control; Detroit 562 (pharynx, carcinoma) cell viability (% of control) ([5]; 3.7 nM): 31.9 ± 6.7 % of control; Detroit 562 (pharynx, carcinoma) cell viability (% of control) ([5]; 11.1 nM): 27.0 ± 5.5 % of control; Detroit 562 (pharynx, carcinoma) cell viability (% of control) ([5]; 100 nM): 24.7 ± 2.9 % of control; Detroit 562 (pharynx, carcinoma) cell viability (% of control) ([5]; 300 nM): 28.7 ± 2.5 % of control; Capan-1 (pancreas, adenocarcinoma) cell viability (% of control) ([6]; 3.7 nM): 100.8 ± 5.3 % of control; Capan-1 (pancreas, adenocarcinoma) cell viability (% of control) ([6]; 11.1 nM): 38.4 ± 4.5 % of control; Capan-1 (pancreas, adenocarcinoma) cell viability (% of control) ([6]; 100 nM): 34.0 ± 2.8 % of control; Capan-1 (pancreas, adenocarcinoma) cell viability (% of control) ([6]; 300 nM): 33.1 ± 1.7 % of control; DU 145 cell viability ([7]; 3.7 nM): 37.2 ± 10.4 % of control; DU 145 cell viability ([7]; 11.1 nM): 7.0 ± 0.9 % of control; DU 145 cell viability ([7]; 100 nM): 7.0 ± 1.1 % of control; DU 145 cell viability ([7]; 300 nM): 8.0 ± 2.9 % of control; MIA PaCa-2 (pancreas, carcinoma) cell viability (% of control) ([8]; 3.7 nM): 65.7 ± 12.6 % of control; MIA PaCa-2 (pancreas, carcinoma) cell viability (% of control) ([8]; 11.1 nM): 19.1 ± 8.0 % of control; MIA PaCa-2 (pancreas, carcinoma) cell viability (% of control) ([8]; 100 nM): 16.7 ± 6.7 % of control; MIA PaCa-2 (pancreas, carcinoma) cell viability (% of control) ([8]; 300 nM): 17.6 ± 7.6 % of control; MDA-MB-231 (breast, adenocarcinoma) cell viability (% of control) ([9]; 3.7 nM): 100.0 ± 4.5 % of control; MDA-MB-231 (breast, adenocarcinoma) cell viability (% of control) ([9]; 11.1 nM): 59.9 ± 2.1 % of control; MDA-MB-231 (breast, adenocarcinoma) cell viability (% of control) ([9]; 100 nM): 52.1 ± 1.8 % of control; MDA-MB-231 (breast, adenocarcinoma) cell viability (% of control) ([9]; 300 nM): 52.6 ± 2.5 % of control; PC-3 (prostate, adenocarcinoma) cell viability (% of control) ([10]; 3.7 nM): 78.9 ± 4.6 % of control; PC-3 (prostate, adenocarcinoma) cell viability (% of control) ([10]; 11.1 nM): 36.6 ± 1.8 % of control; PC-3 (prostate, adenocarcinoma) cell viability (% of control) ([10]; 100 nM): 32.1 ± 3.6 % of control; PC-3 (prostate, adenocarcinoma) cell viability (% of control) ([10]; 300 nM): 31.3 ± 2.5 % of control; EBC-1 (lung, squamous cell carcinoma) cell viability (% of control) ([11]; 3.7 nM): 76.4 ± 2.2 % of control; EBC-1 (lung, squamous cell carcinoma) cell viability (% of control) ([11]; 11.1 nM): 24.8 ± 1.1 % of control; EBC-1 (lung, squamous cell carcinoma) cell viability (% of control) ([11]; 100 nM): 21.3 ± 0.6 % of control; EBC-1 (lung, squamous cell carcinoma) cell viability (% of control) ([11]; 300 nM): 20.1 ± 0.0 % of control; IC50 [12]: 4 nM; IC50 (Panc-1 human cell line; PANC-1, 72 h, read-out: IC50 (72 h) [nM]): 2.08 ± 0.267 nM; IC50 (Panc-1 human cell line; PANC-1, 96 h, read-out: IC50 (96 h) [nM]): 0.517 ± 0.0232 nM; IC50 [13]: 3 nM
